Results on 39 compounds are retold here after patent US20050215548A1 (Cyclacel Limited, priority 2002, published 2005).

This test addresses T1, HDM2 (Homo sapiens, UniProt Q00987).
T1 construct: Recombinant HDM2 (1.5 μg per well) in TBS-BSA buffer
Briefly: Fluorescence polarisation competitive HDM2 binding assay. The settings on record: fluorescence polarisation format; Table 1; read-out: IC50 In vitro competitive HDM2 binding assay. As for the experimental part:
This was carried out using a 96-well microtiter plate (Costar) format. Recombinant HDM2 (1.5 μg per well) in TBS-BSA buffer (50 mM Tris pH 7.4, 150 mM NaCl, and 0.1% BSA) was incubated for 5 min at room temperature in the presence of serially diluted test compound (in TBS-BSA buffer with a final concentration of 5% DMSO). Fluorescently labelled p53-derived peptide (fluorescein-[…]NH2, 0.2 μM) was added to each well and the plate was incubated at room temperature for 45 min. The fluorescence polarisation (excitation 485 nm, emission 520 nm) of the peptide was measured. IC50 values were calculated from dose-response curves.
The fluorescence polarisation competitive HDM2 binding assay described in Example 3 was used. Furthermore, the anti-proliferative potency of the compounds against three human tumour cell lines with different genetic make-up was also determined. […] The cell lines used were as follows: AGS, gastric adenocarcinoma, wild-type p53; H1299, large cell lung carcinoma, p53 null, low HDM2; SJSA-1, primitive multipotential bone sarcoma, wild-type p53, overexpressed HDM2.

As a reminder, the IC50 is the concentration needed to halve the response being measured.

T1 sequence (Q00987 whole entry): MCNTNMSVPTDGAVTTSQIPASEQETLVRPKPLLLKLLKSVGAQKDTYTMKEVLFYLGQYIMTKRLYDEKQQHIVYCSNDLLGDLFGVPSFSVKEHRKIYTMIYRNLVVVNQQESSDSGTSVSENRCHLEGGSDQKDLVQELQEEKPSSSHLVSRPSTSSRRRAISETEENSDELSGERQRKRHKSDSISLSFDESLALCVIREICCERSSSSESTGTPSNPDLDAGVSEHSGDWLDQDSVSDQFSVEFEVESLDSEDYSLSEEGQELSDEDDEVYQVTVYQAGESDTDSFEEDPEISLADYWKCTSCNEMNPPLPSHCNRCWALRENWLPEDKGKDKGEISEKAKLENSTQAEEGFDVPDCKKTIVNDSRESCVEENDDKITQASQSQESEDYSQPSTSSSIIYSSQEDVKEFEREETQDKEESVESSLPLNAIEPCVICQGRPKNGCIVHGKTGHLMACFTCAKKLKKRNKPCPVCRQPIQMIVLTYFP

Take `O=S(=O)(Nc1cc(C(F)(F)F)cc(C(F)(F)F)c1)c1c(Cl)nc2sccn12` [Compound 84, 6-Chloro-imidazo[2,1-b]thiazole-5-sulfonic acid (3,5-bis-trifluoro-methyl-phenyl)-amide]: the IC50 came out at 308 ± 17 µM.
For `O=S(=O)(Nc1ccc(Cl)cc1)c1ccc2c(c1)OCCO2` [Compound 85, 2,3-Dihydro-benzo[1,4]dioxine-6-sulfonic acid (4-chloro-phenyl)-amide], the IC50 is 432 ± 7 µM.
For `O=S(=O)(Nc1cc(C(F)(F)F)cc(C(F)(F)F)c1)c1ccc2c(c1)OCCO2` [Compound 86, 2,3-Dihydro-benzo[1,4]dioxine-6-sulfonic acid (3,5-bis-trifluoromethyl-phenyl)-amide], the IC50 came out at 375 ± 39 µM.
For `O=S(=O)(Nc1ccc(Cl)cc1)c1ccc(Oc2ccccc2)nc1` [Compound 87, 6-Phenoxy-pyridine-3-sulfonic acid (4-chloro-phenyl)-amide] the value was 212 ± 27 µM; for `Cc1c(S(=O)(=O)Nc2ccc(Cl)c([N+](=O)[O-])c2)sc2ccc(Cl)cc12` [Compound 88, 5-Chloro-3-methyl-benzo[b]thiophene-2-sulfonic acid (4-chloro-3-nitro-phenyl)-amide], 174 ± 11 µM.
In the case of `O=S(=O)(Nc1cc(C(F)(F)F)cc(C(F)(F)F)c1)c1ccc(-n2cccn2)cc1` [Compound 89, N-(3,5-Bis-trifluoromethyl-phenyl)-4-pyrazol-1-yl-benzenesulfonamide] it was 275 ± 45 µM; in that of `CCOC(=O)c1[nH]c(C)c(S(=O)(=O)Nc2ccc(Cl)cc2)c1C` [Compound 90, 4-(4-Chloro-phenylsulfamoyl)-3,5-dimethyl-1H-pyrrole-2-carboxylic acid ethyl ester], 331 ± 52 µM; in that of `Cc1[nH]c(C(=O)O)c(C)c1S(=O)(=O)Nc1cc(C(F)(F)F)cc(C(F)(F)F)c1` [Compound 91, 4-(3,5-Bis-trifluoromethyl-phenylsulfamoyl)-3,5-dimethyl-1H-pyrrole-2-carboxylic acid], 481 µM.
`Cc1[nH]c(C(=O)O)c(C)c1S(=O)(=O)Nc1ccc(Cl)cc1` [Compound 92, 4-(4-Chloro-phenylsulfamoyl)-3,5-dimethyl-1H-pyrrole-2-carboxylic acid]: the IC50 amounted to 418 µM.
As for `CCOC(=O)c1sc(S(=O)(=O)Nc2ccc(Cl)cc2)nc1C` [Compound 93, 2-(4-Chloro-phenylsulfamoyl)-4-methyl-thiazole-5-carboxylic acid ethyl ester], the IC50 is 373 ± 373 µM.
In the case of `O=S(=O)(Nc1ccc(Cl)cc1)c1cc(Cl)c(O)c(Cl)c1` [Compound 94, 3,5-Dichloro-N-(4-chloro-phenyl)-4-hydroxy-benzenesulfonamide] it was 227 ± 7 µM; in that of `O=S(=O)(Nc1cc(C(F)(F)F)cc(C(F)(F)F)c1)c1cc(Cl)c(O)c(Cl)c1` [Compound 95, N-(3,5-Bis-trifluoromethyl-phenyl)-3,5-dichloro-4-hydroxy-benzenesulfonamide], 243 ± 11 µM; in that of `O=S(=O)(Nc1ccc(C(F)(F)F)cc1)c1cc(Cl)c(O)c(Cl)c1` [Compound 96, 3,5-Dichloro-4-hydroxy-N-(4-trifluoromethyl-phenyl)-benzenesulfonamide], 449 ± 51 µM.
In the case of `O=[N+]([O-])c1ccc(S(=O)(=O)Nc2ccc(Cl)cc2)cc1` [Compound 97, N-(4-Chloro-phenyl)-4-nitro-benzene-sulfonamide] it was 394 ± 13 µM; in that of `O=[N+]([O-])c1ccc(S(=O)(=O)Nc2cc(C(F)(F)F)cc(C(F)(F)F)c2)cc1` [Compound 98, N-(3,5-Bis-trifluoromethyl-phenyl)-4-nitro-benzenesulfonamide], 207 µM.
For `Nc1ccc(S(=O)(=O)Nc2cc(C(F)(F)F)cc(C(F)(F)F)c2)cc1Cl` [Compound 99, 4-Amino-N-(3,5-bis-trifluoromethyl-phenyl)-3-chloro-benzenesulfonamide] the value was 248 ± 29 µM; for `O=[N+]([O-])c1cccc(S(=O)(=O)Nc2ccc(C(F)(F)F)cc2)c1` [Compound 100, 3-Nitro-N-(4-trifluoromethyl-phenyl)-benzenesulfonamide], 431 ± 5 µM.
Take `O=S(=O)(Nc1cc(Cl)cc(Cl)c1)c1cc(Cl)c(O)c(Cl)c1` [Compound 101, 3,5-Dichloro-N-(3,5-dichloro-phenyl)-4-hydroxy-benzenesulfonamide]: the IC50 was determined as 299 ± 31 µM.
For `Nc1ccc(S(=O)(=O)Nc2ccc(Cl)cc2)cc1Cl` [Compound 102, 4-Amino-3-chloro-N-(4-chloro-phenyl)-benzenesulfonamide] the value was 467 ± 35 µM; for `COc1ccc(S(=O)(=O)Nc2ccc(Cl)cc2)cc1Cl` [Compound 103, 3-Chloro-N-(4-chloro-phenyl)-4-methoxy-benzenesulfonamide], 408 ± 18 µM; for `CC(=O)N1CCN(c2cc(S(=O)(=O)Nc3cc(C(F)(F)F)cc(C(F)(F)F)c3)ccc2[N+](=O)[O-])CC1` [Compound 106, 3-(4-Acetyl-piperazin-1-yl)-N-(3,5-bis-trifluoromethyl-phenyl)-4-nitro-benzenesulfonamide], 241 ± 158 µM.
In the case of `O=[N+]([O-])c1ccccc1S(=O)(=O)Nc1cc(C(F)(F)F)cc(C(F)(F)F)c1` [Compound 107, N-(3,5-Bis-trifluoromethyl-phenyl)-2-nitro-benzenesulfonamide] it was 401 ± 46 µM; in that of `O=C(O)c1cccc(S(=O)(=O)Nc2cc(C(F)(F)F)cc(C(F)(F)F)c2)c1` [Compound 108, 3-(3,5-Bis-trifluoromethyl-phenylsulfamoyl)-benzoic acid], 451 ± 118 µM.
In the case of `O=S(=O)(NCc1ccc(Cl)cc1)c1cc(Cl)c(O)c(Cl)c1` [Compound 109, 3,5-Dichloro-N-(4-chloro-benzyl)-4-hydroxy-benzenesulfonamide] it was 375 ± 41 µM; in that of `O=S(=O)(NCc1ccc(C(F)(F)F)cc1)c1cc(Cl)c(O)c(Cl)c1` [Compound 110, 3,5-Dichloro-4-hydroxy-N-(4-trifluoromethyl-benzyl)-benzenesulfonamide], 242 µM; in that of `O=S(=O)(NCCc1c[nH]c2ccccc12)c1cc(Cl)c(O)c(Cl)c1` [Compound 111, 3,5-Dichloro-4-hydroxy-N-[2-(1H-indol-3-yl)-ethyl]-benzenesulfonamide], 448 µM.
Take `O=S(=O)(Nc1cc(Cl)cc(Cl)c1)c1cc(Br)c(Br)s1` [Compound 112, 4,5-Dibromo-thiophene-2-sulfonic acid (3,5-dichloro-phenyl)-amide]: the IC50 came out at 194 µM.
In the case of `O=S(=O)(Nc1cc(Cl)cc(Cl)c1)c1ccc(-c2ncco2)cc1` [Compound 113, N-(3,5-Dichloro-phenyl)-4-oxazol-2-yl-benzenesulfonamide] it was 246 µM.
For `O=S(=O)(Nc1cc(C(F)(F)F)cc(C(F)(F)F)c1)c1cc(Br)c(Cl)s1` [Compound 114, 4-Bromo-5-chloro-thiophene-2-sulfonic acid (3,5-bis-trifluoromethyl-phenyl)-amide], the IC50 was determined as 293 µM.
On to `O=S(=O)(Nc1cc(Cl)cc(Cl)c1)c1cc(Br)c(Cl)s1` [Compound 115, 4-Bromo-5-chloro-thiophene-2-sulfonic acid (3,5-dichloro-phenyl)-amide], for which the concentration for half-maximal inhibition (IC50) was found to be 431 µM.
For `O=S(=O)(Nc1ccc(C(F)(F)F)cc1)c1ccc(Br)s1` [Compound 116, 5-Bromo-thiophene-2-sulfonic acid (4-trifluoromethyl-phenyl)-amide] the value was 152 µM.
For `O=S(=O)(Nc1cc(C(F)(F)F)cc(C(F)(F)F)c1)c1ccc(S(=O)(=O)c2ccccc2)s1` [Compound 117, 5-Benzenesulfonyl-thiophene-2-sulfonic acid (3,5-bis-trifluoromethyl-phenyl)-amide] the value was 147 µM; for `O=S(=O)(Nc1ccc(Cl)cc1Cl)c1ccc(S(=O)(=O)c2ccccc2)s1` [Compound 118, 5-Benzenesulfonyl-thiophene-2-sulfonic acid (2,4-dichloro-phenyl)-amide], 305 µM; for `Cc1c(S(=O)(=O)Nc2cc(C(F)(F)F)cc(C(F)(F)F)c2)sc2ccc(Cl)cc12` [Compound 119, 5-Chloro-3-methyl-benzo[b]thiophene-2-sulfonic acid (3,5-bis-trifluoromethyl-phenyl)-amide], 106 ± 13 µM.
For `O=S(=O)(Nc1cc(C(F)(F)F)cc(C(F)(F)F)c1)c1cc2ccccc2s1` [Compound 120, Benzo[b]thiophene-2-sulfonic acid (3,5-bis-trifluoromethyl-phenyl)-amide] the value was 193 ± 12 µM; for `O=S(=O)(Nc1ccc(Cl)cc1)c1ccc2nsnc2c1` [Compound 121, Benzo[1,2,5]thiadiazole-5-sulfonic acid (4-chloro-phenyl)-amide], 314 ± 29 µM.
For `O=S(=O)(Nc1cc(C(F)(F)F)cc(C(F)(F)F)c1)c1ccc2nsnc2c1` [Compound 122, Benzo[1,2,5]thiadiazole-5-sulfonic acid (3,5-bis-trifluoromethyl-phenyl)-amide], the IC50 is 165 ± 8 µM.
Take `O=S(=O)(Nc1ccc(C(F)(F)F)cc1)c1ccc2nsnc2c1` [Compound 123, Benzo[1,2,5]thiadiazole-5-sulfonic acid (4-trifluoromethyl-phenyl)-amide]: the IC50 is 329 ± 42 µM.
In the case of `O=S(=O)(Nc1cc(C(F)(F)F)cc(C(F)(F)F)c1)c1ccc(-c2ccccn2)s1` [Compound 124, 5-Pyridin-2-yl-thiophene-2-sulfonic acid (3,5-bis-trifluoromethyl-phenyl)-amide] it was 265 ± 64 µM.
